{
  "source": "patent US20100093678A1",
  "about": "“Compositions and methods of the treatment of obesity and osteoporosis” (THE UNIVERSITY OF GEORGIA RESEARCH FOUNDATION, INC, priority 2008, published 2010)",
  "key": {"aP2": {"system": "aP2", "experiment": "Western blot, aP2 expression in maturing 3T3-L1 preadipocytes", "assay_type": "cell-based, mouse", "details": "0.5 nM 1,25(OH)2D3, 3.12 μM GS, alone or combined; days 0-6; vs control", "description": "(§1) The protein concentration was determined by BCA assay with bovine serum albumin as the standard. Western blot analysis was performed using the commercial NUPAGE system (Novex/Invitrogen), in which a lithium dodecyl sulfate sample buffer (Tris/glycerol buffer, pH 8.5) was mixed with fresh dithiothreitol and added to samples.\n(§2) Measurement of signal intensity on PVDF membranes after Western blotting with various antibodies was performed using a Fluor Chem densitomer with the Alpha-EaseFC image processing and analysis software (Alpha Innotech Corp.). For statistical analysis, all data were expressed as integrated density values (IDV), which were calculated as the density values of the specific protein bands/b-actin density values and expressed as percentage of the control. All figures showing quantitative analysis include data from at least three independent experiments."}, "FXR": {"system": "FXR", "experiment": "Western blot, FXR expression in maturing 3T3-L1 preadipocytes", "assay_type": "cell-based, mouse", "details": "for increase in FXR levels: 3.12 μM GS", "description": "as §1, §2"}, "[1]": {"system": "maturing 3T3-L1 preadipocytes", "experiment": "Quantification of lipid content (AdipoRed/Nile Red) in maturing preadipocytes", "assay_type": "cell-based, mouse", "details": "0.5 nM 1,25(OH)2D3 (D0.5), 3.12 μM GS (GS3.12), alone or combined; treated during adipogenic phase, measured day 6", "description": "(§3) 3T3-L1 mouse embryo fibroblasts were obtained from American Type Culture Collection (Manassas, Va.) and were cultured as described elsewhere. Briefly, cells were cultured in DMEM containing 10% bovine calf serum until confluent. Two days after confluence, the cells were stimulated to differentiate with DMEM containing 10% fetal bovine serum (FBS), 167 nM insulin, […], and 1 μM dexamethasone for 2 days. On day 2, differentiation medium was replaced with 10% FBS/DMEM containing 167 nM insulin and incubated for 2 days, followed by culturing with 10% FBS/DMEM for an additional 4 days, at which time >90% of cells were mature adipocytes with accumulated fat droplets. All media contained 1% penicillin streptomycin (10,000 U/ml) and 1% (v/v) 100 mM pyruvate. Cells were maintained at 37° C. in a humidified 5% CO2 atmosphere.\nLipid content was quantified using commercially available AdipoRed™ Assay Reagent. In brief, maturing adipocytes grown in 96-well plates were incubated with vehicle or test compounds during the adipogenic phase and on day 6, culture supernatant was removed and lipid content was quantified by performing AdipoRed™ assay as per the manufacturer's instructions. Treated cells were also stained with Oil Red O and hematoxylin as described by Suryawan and Hu to visualize the lipid content. […]"}, "[2]": {"system": "human mesenchymal stem cells (hMSC)", "experiment": "Osteogenic differentiation of hMSC (ALP activity, calcium deposition, Alizarin red S)", "assay_type": "cell-based", "details": "for alp activity: FIG. 8D, osteogenic conditions; for osteogenesis: hMSC cultured under osteogenic conditions; for increased calcium deposition: pretreatment, day 17, XN 5 μM, cGS varying doses", "description": "Alkaline phosphatase activity (ALP/protein) was measured on day 8. Means that are not denoted with a common letter are different (p<0.001).\n(§4) In these further examples, post confluent hMSC were treated with varying doses of cGS or XN in adipogenic induction medium, and lipid deposition and cell viability were measured. Alternatively, pre-confluent hMSC were pre-treated with varying doses of cGS or XN for 3 days prior to addition of osteogenic induction medium. Alkaline phosphatase (ALP) activity was determined 3 days post-induction and indices of mineralization (calcium deposition and Alizarin red S stain) were determined 14-28 days post-induction. […] Inhibition was dose-dependent with ˜50% inhibition observed with 6.5 μM cGS and 0.75 μM XN, respectively. Pretreatment with cGS stimulated osteogenic differentiation in hMSC cultures as indicated by increased ALP activity at day 3 (˜10%; P<0.05) and calcium deposition at day 17 (˜35-60%; P<0.05). Pretreatment with 5 μM XN increased calcium deposition (33%; P<0.05) at day 17."}, "[3]": {"system": "maturing 3T3-L1 preadipocytes", "experiment": "Apoptosis assay (ApoStrand ssDNA ELISA) in maturing preadipocytes", "assay_type": "cell-based, mouse", "details": "0.5 nM 1,25(OH)2D3, 3.12 μM GS, alone or combined", "description": "as §3\nApoptosis assay. For measuring the extent of apoptosis, the ApoStrand ELISA Apoptosis Detection Kit (Biomol, Plymouth Meeting, Pa.) was used. Cells were grown in 96-well plates and incubated with either vehicle or test reagents for the indicated time periods. Cells were then fixed and assayed as per the manufacturer's instructions. The assay selectively detects single-stranded DNA, which occurs in apoptotic cells but not in necrotic cells or cells with DNA breaks in the absence of apoptosis."}, "C/EBPα": {"system": "C/EBPα", "experiment": "Western blot, C/EBPα expression in maturing 3T3-L1 preadipocytes", "assay_type": "cell-based, mouse", "details": "0.5 nM 1,25(OH)2D3, 3.12 μM GS, alone or combined; days 0-6; vs control", "description": "as §1, §2"}, "PPARγ": {"system": "PPARγ", "experiment": "Western blot, PPARγ expression in maturing 3T3-L1 preadipocytes", "assay_type": "cell-based, mouse", "details": "0.5 nM 1,25(OH)2D3, 3.12 μM GS, alone or combined; days 0-6; vs control", "description": "as §1, §2"}, "[4]": {"system": "human mesenchymal stem cells (hMSC)", "experiment": "Cell viability in hMSC osteogenic cultures", "assay_type": "cell-based", "details": "osteogenic conditions; varying doses of cGS; XN 20 μM", "description": "(§5) In these further examples, post confluent hMSC were treated with varying doses of cGS or XN in adipogenic induction medium, and lipid deposition and cell viability were measured. Alternatively, pre-confluent hMSC were pre-treated with varying doses of cGS or XN for 3 days prior to addition of osteogenic induction medium. Alkaline phosphatase (ALP) activity was determined 3 days post-induction and indices of mineralization (calcium deposition and Alizarin red S stain) were determined 14-28 days post-induction. […] P<0.05). Pretreatment with 5 μM XN increased calcium deposition (33%; P<0.05) at day 17."}, "[5]": {"system": "human mesenchymal stem cells (hMSC)", "experiment": "Lipid deposition / adipogenesis in hMSC under adipogenic conditions", "assay_type": "cell-based", "details": "for adipogenesis (lipid accumulation): hMSC cultured under adipogenic conditions", "description": "Cells were cultured in adipogenic induction medium and treated with control or the combination of R+Q+G (15 μM each). After 18 days adipogenesis was measured and expressed as % control. […] Means that are not denoted with a common letter are different p<0.05.\nas §4"}, "[6]": {"system": "human mesenchymal stem cells (hMSC)", "experiment": "Cell viability in hMSC adipogenic cultures", "assay_type": "cell-based", "details": "adipogenic conditions; varying doses of cGS; XN 1.5-12 μM", "description": "as §5"}, "VDR": {"system": "VDR", "experiment": "Western blot, VDR expression in maturing 3T3-L1 preadipocytes", "assay_type": "cell-based, mouse", "details": "any time point (day 1, 4, 6); 3.12 μM GS", "description": "as §1, §2"}, "[7]": {"system": "maturing 3T3-L1 preadipocytes", "experiment": "Cell viability assay (CellTiter 96) in maturing preadipocytes", "assay_type": "cell-based, mouse", "details": "0.5 nM 1,25(OH)2D3, 3.12 μM GS, alone or combined; 6 days during adipogenesis", "description": "as §3\nTests were performed in 96-well plates. Two day postconfluent preadipocytes were treated with differentiation medium containing either vehicle or test compounds for 6 days during adipogenesis. On day 6 the treatment medium was removed and the cell viability assay was performed as per the manufacturer's instructions. The absorbance was measured at 490 nm in a plate reader (μQuant Bio-Tek Instruments, Winooski, Vt.) to determine the formazan concentration, which is proportional to the number of live cells."}, "PPARs": {"system": "PPARs", "details": "reference [20]; cited from earlier work"}},
  "note": "Where “and” joins values, the source holds several entries; their conditions need not be identical. Equal values may be shown once.",
  "data": [
    {"compound": "C=C1/C(=C\\C=C2/CCC[C@]3(C)[C@@H]([C@H](C)CCCC(C)(C)O)CC[C@@H]23)C[C@@H](O)C[C@@H]1O", "note": "[1,25(OH)2D3, 1,25-dihydroxy vitamin D3, reference compound]", "values": [
      {"measurement": "decrease in expression of aP2", "setting": "aP2", "value": "27.2±4.8", "unit": "%"},
      {"measurement": "effect on FXR levels", "setting": "FXR; any time point, 0.5 nM 1,25(OH)2D3", "value": "no effect"},
      {"measurement": "decrease in lipid accumulation", "setting": "[1]", "value": "29.3±3.4", "unit": "%"},
      {"measurement": "alp activity", "setting": "[2]", "value": "significantly increased alp activity"},
      {"measurement": "increase in apoptosis", "setting": "[3]", "value": "18.4±2.3", "unit": "%"},
      {"measurement": "decrease in expression of C/EBPα", "setting": "C/EBPα", "value": "46.3±3.4% and 46%"},
      {"measurement": "decrease in expression of PPARγ", "setting": "PPARγ", "value": "46.2±4.4% and 46%"}
    ]},
    {"compound": "C/C=C1\\C(=O)C[C@H]2[C@@H]3CCC4=CC(=O)CC[C@]4(C)[C@H]3CC[C@]12C", "note": "[GS, cis-Guggulsterone]", "values": [
      {"measurement": "decrease in expression of aP2", "setting": "aP2", "value": "did not significantly alter"},
      {"measurement": "effect on FXR expression", "setting": "FXR; day 1, 3.12 μM GS alone or with 0.5 nM 1,25(OH)2D3", "value": "did not have any significant effect"},
      {"measurement": "increase in FXR levels", "setting": "FXR; day 4", "value": "30.6±9.3", "unit": "%"},
      {"measurement": "increase in FXR levels", "setting": "FXR; day 6", "value": "64.8±10", "unit": "%"},
      {"measurement": "cell number (viability)", "setting": "[4]", "value": "dose-dependent increase"},
      {"measurement": "inhibition of lipid deposition", "setting": "[5]; 6.5 μM cGS, 0.75 μM XN, adipogenic conditions", "value": "~50", "unit": "%"},
      {"measurement": "adipogenesis (lipid accumulation)", "setting": "[5]", "value": "reduced adipogenesis"},
      {"measurement": "cell number (viability)", "setting": "[6]", "value": "dose-dependent increase"},
      {"measurement": "decrease in lipid accumulation", "setting": "[1]", "value": "29.7±2.7", "unit": "%"},
      {"measurement": "effect on VDR expression", "setting": "VDR", "value": "did not significantly alter"},
      {"measurement": "osteogenesis", "setting": "[2]", "value": "promoted osteogenesis"},
      {"measurement": "increased ALP activity", "setting": "[2]; pretreatment 3 days before osteogenic induction, day 3 post-induction", "value": "~10", "unit": "%"},
      {"measurement": "increased calcium deposition", "setting": "[2]", "value": "35-60%"},
      {"measurement": "increase in apoptosis", "setting": "[3]", "value": "did not have any significant effect"},
      {"measurement": "decrease in expression of C/EBPα", "setting": "C/EBPα", "value": "did not significantly alter"},
      {"measurement": "decrease in cell viability", "setting": "[7]", "value": "did not have any significant effect"},
      {"measurement": "interaction with PPARs", "setting": "PPARs", "value": "did not interact"},
      {"measurement": "decrease in expression of PPARγ", "setting": "PPARγ", "value": "did not significantly alter"}
    ]},
    {"compound": "COc1cc(O)c(CC=C(C)C)c(O)c1C(=O)/C=C/c1ccc(O)cc1", "note": "[XN, xanthohumol]", "values": [
      {"measurement": "cell number (viability)", "setting": "[4]", "value": "decreased viability"},
      {"measurement": "inhibition at 0.75 µM", "setting": "[5]; Homo sapiens, Mesenchymal stem cells, 6.5 μM cGS, 0.75 μM XN, adipogenic conditions", "value": "~50", "unit": "%"},
      {"measurement": "adipogenesis (lipid accumulation)", "setting": "[5]", "value": "reduced adipogenesis"},
      {"measurement": "cell number (viability)", "setting": "[6]", "value": "increased cell viability dose-dependently"},
      {"measurement": "osteogenesis", "setting": "[2]", "value": "promoted osteogenesis"},
      {"measurement": "increased calcium deposition", "setting": "[2]", "value": 33, "unit": "%"}
    ]},
    {"compound": "O=c1c(-c2ccc(O)cc2)coc2cc(O)cc(O)c12", "note": "[genistein, 5,7-Dihydroxy-3-(4-hydroxyphenyl)chromen-4-one]", "values": [
      {"measurement": "alp activity", "setting": "[2]", "value": "significantly increased alp activity"},
      {"measurement": "osteogenesis", "setting": "[2]", "value": "promoted osteogenesis"}
    ]},
    {"compound": "O=c1c(O)c(-c2ccc(O)c(O)c2)oc2cc(O)cc(O)c12", "note": "[quercetin, 2-(3,4-dihydroxyphenyl)-3,5,7-trihydroxy-4H-chromen-4-one]", "values": [
      {"measurement": "adipogenesis (lipid accumulation)", "setting": "[5]", "value": "reduced adipogenesis"},
      {"measurement": "osteogenesis", "setting": "[2]", "value": "promoted osteogenesis"}
    ]},
    {"compound": "vitamin D [reference compound]", "values": [
      {"measurement": "osteogenesis", "setting": "[2]", "value": "promoted osteogenesis"}
    ]}
  ]
}
